“And” between values parts separate entries of the source, which are not always exact repeats. Identical values can stand only once.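 Briefly, cells in 96-well plates were exposed to five compound concentrations for 48 h, and endpoints were estimated by linear interpolation. The concentration for 50% growth inhibition is given as GI50. TGI: concentration producing complete growth inhibition.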
Key:
Assay in all cases: DTP human tumour cell line panel, 48 h
[1] = system: MDA-MB-435
[2] = system: DU-145 prostate
[3] = system: TK-10 renal
[4] = system: HCT-15 colon
[5] = system: NCI-H23 lung
[6] = system: SN12C renal
[7] = system: HOP-62 NSCLC
[8] = system: CAKI-1 renal
[9] = system: PC-3 prostate
[10] = system: SW-620 colon

| Compound | GI50 [1] | TGI [1] | GI50 [2] | TGI [2] | GI50 [3] | TGI [3] | GI50 [4] | TGI [4] | GI50 [5] | TGI [5] | GI50 [6] | TGI [6] | GI50 [7] | TGI [7] | GI50 [8] | TGI [8] | GI50 [9] | TGI [9] | GI50 [10] | TGI [10] |
| --- | --- | --- | --- | --- | --- | --- | --- | --- | --- | --- | --- | --- | --- | --- | --- | --- | --- | --- | --- | --- |
| O=C(Nc1ccncc1)C(=O)c1cn(S(=O)(=O)c2ccc(Cl)cc2)c2ccccc12 | 0.106 µM | 0.521 µM | 3.43 µM | > 49.7 µM | 11.5 µM | 38.4 µM | 0.45 µM | > 100 µM | 0.425 µM | 33.1 µM | 2.02 µM | > 100 µM | 1.73 µM | 22 µM | 1.86 µM | > 100 µM | 1.4 µM | > 55.5 µM | 1.35 µM | > 100 µM |
| O=c1cc(-c2cccc3c2Sc2ccccc2S3)oc(N2CCOCC2)c1 | 3.54 µM | 13.5 µM | 8.19 µM | 20.5 µM | 12.2 µM | 25 µM | 8.68 µM | 24.3 µM | 15.5 µM | 36.9 µM | 6.17 µM | 21.8 µM | 10.9 µM | 23 µM | 5.3 µM | 18.9 µM | 6.26 µM | 20.9 µM | 12.3 µM | 26.8 µM |
| COc1ccc2ccccc2c1C1NC(=O)c2ccccc2N1 (stereo not drawn) | – | 0.461 µM | – | > 25.2 µM | – | > 100 µM | – | 6.21 µM | – | > 100 µM | – | > 82.6 µM | – | > 100 µM | – | > 85.2 µM | – | 3.19 µM | – | > 37.5 µM |
| C[As](C)SCC(COC(=O)C(Cl)c1ccccc1)OC(=O)C(Cl)c1ccccc1 (stereo not drawn) | 0.367 µM | 3.13 µM | 1.24 µM | 16.9 µM | 0.222 µM | 1.58 µM | 0.229 µM | 4.02 µM | 0.719 µM | 14.6 µM | 2.48 µM | 10.9 µM | 6.66 µM | 21.6 µM | 0.506 µM | 6.58 µM | 0.74 µM | 19.4 µM | 0.491 µM | 28.2 µM |
| COc1c2ccoc2c(OC)c2oc(=O)ccc12 | – | > 100 µM | – | > 100 µM | – | > 100 µM | – | > 100 µM | – | > 100 µM | – | > 100 µM | – | > 100 µM | – | > 100 µM | – | > 100 µM | – | > 100 µM |
| O=C(NCCCO)c1cc(Cl)ccc1O | 2.68 µM | 12.1 µM | 4.41 µM | 16.1 µM | 4.26 µM | 15.1 µM | 7.02 µM | 21.6 µM | 2.02 µM | 8.3 µM | 1.89 µM | 11.7 µM | 3.86 µM | 13.4 µM | 6.11 µM | 24.6 µM | 2.06 µM | 10.2 µM | 2.94 µM | 14.3 µM |
| C#Cc1c(/C=C/C(=O)OCC)ccc2ccccc12 | 2.11 µM | 5.78 µM | 28.9 µM | 75.6 µM | 30.4 µM | 79.1 µM | 9.99 µM | 97.3 µM | 20.1 µM | 47.9 µM | 13.3 µM | 39.4 µM | 28.5 µM | 95.5 µM | 21.4 µM | 56.7 µM | 18.3 µM | 63.6 µM | 32.2 µM | > 100 µM |
| Nc1nc2c(ncn2C2C=CC(CO)C2)c(=O)[nH]1 (stereo not drawn) | – | > 100 µM | – | > 100 µM | – | > 100 µM | – | > 100 µM | – | > 100 µM | – | > 100 µM | – | > 100 µM | – | > 100 µM | – | > 100 µM | – | > 100 µM |
| CC(C)=CCC/C(C)=C/CC/C(C)=C/CSc1ccccc1C(=O)O | 27.4 µM | 73.6 µM and 55.5 µM | 24.6 µM | 55.1 µM and 33.5 µM | 36.4 µM | > 92.3 µM and 99.1 µM | 28.6 µM | > 100 µM and 32 µM | 23.6 µM | 61.4 µM and 36.3 µM | – | 56.4 µM and 51.9 µM | – | 35.2 µM and 30.6 µM | 28.1 µM | 71.6 µM and 38.3 µM | 27 µM | > 59.3 µM and 34.1 µM | 20.1 µM | 42.5 µM and > 100 µM |
| S=C(Nc1ccc(-c2nc3ccccc3[nH]2)cc1)Nc1ccc(-c2nc3ccccc3[nH]2)cc1 | > 100 µM | > 100 µM | > 100 µM | > 100 µM | 32.4 µM | > 100 µM | 61.1 µM | > 100 µM | 70.3 µM | > 100 µM | 47.7 µM | > 100 µM | > 100 µM | > 100 µM | 69.7 µM | > 100 µM | > 100 µM | > 100 µM | > 100 µM | > 100 µM |
| NCCCCCCCn1c2c(c3ccccc3c1=O)C(=O)c1ccccc1-2 | 1.98 µM | 4.06 µM | 0.915 µM | 2.12 µM | 1.67 µM | 3.29 µM | 1.53 µM | 5.2 µM | 2.98 µM | 8.36 µM | 1.94 µM | 5.84 µM | 1.36 µM | 2.73 µM | 1.96 µM | 5.25 µM | 1.32 µM | 2.72 µM | 1.14 µM | 2.42 µM |
| O=Nc1ccc(NO)c2ccccc12 | 1.94 µM | 3.57 µM | 17.4 µM | 31.5 µM | 27.6 µM | 42.5 µM | 14.9 µM | 31.7 µM | 7.03 µM | 23.5 µM | 2.68 µM | 11 µM | 14.6 µM | 27.9 µM | 12.2 µM | 25.2 µM | 2.44 µM | 13.2 µM | 3.87 µM | 21.5 µM |
| NCC1OC(n2cnc3c(N)ncnc32)CC1O (stereo not drawn) | – | > 100 µM | – | > 100 µM | – | > 100 µM | – | > 100 µM | – | > 100 µM | – | > 100 µM | – | > 100 µM | – | > 100 µM | – | > 100 µM | – | > 100 µM |
| CC1CCCC(C(O)CC2CC(=O)NC(=O)C2)C1O (stereo not drawn) | – | > 100 µM | – | > 100 µM | – | > 100 µM | – | > 100 µM | – | > 100 µM | – | > 100 µM | – | > 100 µM | – | > 100 µM | – | > 100 µM | – | > 100 µM |
| Cc1nnc(-c2cccc(-c3ccc(C(=O)NCC4CC4)cc3)c2)o1 | > 25 µM | > 25 µM | > 25 µM | > 25 µM | > 25 µM | > 25 µM | > 25 µM | > 25 µM | > 25 µM | > 25 µM | > 25 µM | > 25 µM | > 25 µM | > 25 µM | > 25 µM | > 25 µM | > 25 µM | > 25 µM | > 25 µM | > 25 µM |
| CCN(CC)c1ccc(C(O)C2=CC(=O)c3ccccc3C2=O)cc1 (stereo not drawn) | 1.58 µM | 2.99 µM | 1.85 µM | 4.27 µM | 1.51 µM | 3.16 µM | 3.03 µM | > 32.1 µM | 1.33 µM | 3.02 µM | 1.38 µM | 4.83 µM | 2.03 µM | 4.33 µM | 2.31 µM | 7.4 µM | 0.156 µM | 0.959 µM | 0.802 µM | > 100 µM |

Reference: PubChem BioAssay (NCI)
